The values below are quoted from earlier work in patent publication US20230129072A1, “SYSTEM, PRODUCT AND METHOD FOR MAINTAINING THE VAGINAL MICROBIOME” (VAGINAL BIOME SCIENCE, INC., priority 2021, published 2023).

Series [1] relates to herpes simplex virus (HSV-2). The conditions noted are these: after a single exposure.

As for nonoxynol-9 [Example N9], the “toxicity to beneficial Lactobacilli spp.” value with Lactobacilli spp. was “toxic”.

With polyethylene glycol (PEG-8), in series [1], the “susceptibility to herpes simplex virus (HSV-2)” value is on record as “markedly increased susceptibility”.

In the case of `CC(O)CO` (stereo not drawn) [propylene glycol], the “susceptibility to herpes simplex virus (HSV-2)” value in series [1] is on record as “markedly increased susceptibility”.
